Measurements as given in publication doi:10.1101/2020.07.01.182642v1 (biorxiv, 2020).
One block for each compound: values may come before it.

Experiments:
Conditions in all cases: binder
CDK6 = CDK6 (Homo sapiens, UniProt Q00534)
RIOK2 = RIOK2 (Homo sapiens, UniProt Q9BVS4)
STK38 = STK38 (Homo sapiens, UniProt Q15208)
PRKAA2 = PRKAA2 (Homo sapiens, UniProt P54646)
MAPK11 = MAPK11 (Homo sapiens, UniProt Q15759)
ACVR2B = ACVR2B (Homo sapiens, UniProt Q13705)
TGFBR1 = TGFBR1 (Homo sapiens, UniProt P36897)
MAPK3 = MAPK3 (Homo sapiens, UniProt P27361)
PKN2 = PKN2 (Homo sapiens, UniProt Q16513)
DAPK3 = DAPK3 (Homo sapiens, UniProt O43293)
MAP2K6 = MAP2K6 (Homo sapiens, UniProt P52564)
CSNK1G3 = CSNK1G3 (Homo sapiens, UniProt Q9Y6M4)
DCLK1 = DCLK1 (Homo sapiens, UniProt O15075)
VRK1 = VRK1 (Homo sapiens, UniProt Q99986)
STK4 = STK4 (Homo sapiens, UniProt Q13043)
AKT3 = AKT3 (Homo sapiens, UniProt Q9Y243)
MERTK = MERTK (Homo sapiens, UniProt Q12866)
STK25 = STK25 (Homo sapiens, UniProt O00506)
RPS6KA3 = RPS6KA3 (Homo sapiens, UniProt P51812)
STK17A = STK17A (Homo sapiens, UniProt Q9UEE5)
GSK3B = GSK3B (Homo sapiens, UniProt P49841)
JAK1 = JAK1 (Homo sapiens, UniProt P23458)
MAP4K4 = MAP4K4 (Homo sapiens, UniProt O95819)
PRKG1 = PRKG1 (Homo sapiens, UniProt Q13976)
MAPK13 = MAPK13 (Homo sapiens, UniProt O15264)
CDKL2 = CDKL2 (Homo sapiens, UniProt Q92772)
MAPK8 = MAPK8 (Homo sapiens, UniProt P45983)
CDKL5 = CDKL5 (Homo sapiens, UniProt O76039)
CDK17 = CDK17 (Homo sapiens, UniProt Q00537)
STK32A = STK32A (Homo sapiens, UniProt Q8WU08)
TRIB1 = TRIB1 (Homo sapiens, UniProt Q96RU8)

CDKL2, sequence (Q92772 whole entry): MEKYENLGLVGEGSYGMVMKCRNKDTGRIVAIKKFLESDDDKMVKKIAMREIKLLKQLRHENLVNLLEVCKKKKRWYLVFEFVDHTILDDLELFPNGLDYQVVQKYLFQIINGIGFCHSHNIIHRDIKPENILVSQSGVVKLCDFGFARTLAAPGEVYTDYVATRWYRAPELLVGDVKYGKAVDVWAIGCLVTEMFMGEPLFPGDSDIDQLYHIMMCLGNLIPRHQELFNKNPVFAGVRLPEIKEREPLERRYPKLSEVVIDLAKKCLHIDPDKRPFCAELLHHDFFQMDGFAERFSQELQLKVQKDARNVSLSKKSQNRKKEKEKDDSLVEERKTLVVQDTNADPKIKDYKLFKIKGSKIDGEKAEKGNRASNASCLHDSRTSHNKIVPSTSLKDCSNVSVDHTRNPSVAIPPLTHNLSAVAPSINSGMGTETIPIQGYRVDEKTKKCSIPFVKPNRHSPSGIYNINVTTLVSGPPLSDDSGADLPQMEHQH
STK17A, sequence (Q9UEE5 whole entry): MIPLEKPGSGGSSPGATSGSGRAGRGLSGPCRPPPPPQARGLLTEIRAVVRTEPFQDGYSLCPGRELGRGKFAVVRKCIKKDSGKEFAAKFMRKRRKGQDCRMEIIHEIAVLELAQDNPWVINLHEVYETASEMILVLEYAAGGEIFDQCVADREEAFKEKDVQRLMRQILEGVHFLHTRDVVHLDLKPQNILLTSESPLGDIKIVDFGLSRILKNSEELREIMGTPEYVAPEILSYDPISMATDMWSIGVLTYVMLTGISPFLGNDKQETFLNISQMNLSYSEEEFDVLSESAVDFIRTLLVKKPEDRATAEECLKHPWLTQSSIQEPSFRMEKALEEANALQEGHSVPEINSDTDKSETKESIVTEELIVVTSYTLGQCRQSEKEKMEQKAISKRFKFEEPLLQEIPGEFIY
STK32A, sequence (Q8WU08 whole entry): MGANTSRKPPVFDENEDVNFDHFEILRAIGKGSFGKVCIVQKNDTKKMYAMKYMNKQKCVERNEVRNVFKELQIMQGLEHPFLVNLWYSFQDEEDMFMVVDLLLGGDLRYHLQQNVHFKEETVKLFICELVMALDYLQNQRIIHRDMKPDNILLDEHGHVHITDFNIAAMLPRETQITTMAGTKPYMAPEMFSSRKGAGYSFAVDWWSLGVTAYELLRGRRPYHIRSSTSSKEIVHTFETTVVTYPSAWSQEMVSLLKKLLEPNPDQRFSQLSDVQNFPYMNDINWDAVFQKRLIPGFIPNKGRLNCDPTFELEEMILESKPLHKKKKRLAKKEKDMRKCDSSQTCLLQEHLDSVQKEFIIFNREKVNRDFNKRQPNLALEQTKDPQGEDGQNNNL
MAP2K6, sequence (P52564 whole entry): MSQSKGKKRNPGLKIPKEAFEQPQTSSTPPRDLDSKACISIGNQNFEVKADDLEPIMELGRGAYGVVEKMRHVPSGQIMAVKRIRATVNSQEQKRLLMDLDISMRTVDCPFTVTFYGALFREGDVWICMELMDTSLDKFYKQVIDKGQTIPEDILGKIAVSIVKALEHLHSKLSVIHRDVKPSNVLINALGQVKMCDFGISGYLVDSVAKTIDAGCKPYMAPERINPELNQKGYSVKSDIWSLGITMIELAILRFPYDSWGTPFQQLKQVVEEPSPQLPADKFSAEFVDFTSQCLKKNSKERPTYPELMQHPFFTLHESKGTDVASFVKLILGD
CSNK1G3, sequence (Q9Y6M4 whole entry): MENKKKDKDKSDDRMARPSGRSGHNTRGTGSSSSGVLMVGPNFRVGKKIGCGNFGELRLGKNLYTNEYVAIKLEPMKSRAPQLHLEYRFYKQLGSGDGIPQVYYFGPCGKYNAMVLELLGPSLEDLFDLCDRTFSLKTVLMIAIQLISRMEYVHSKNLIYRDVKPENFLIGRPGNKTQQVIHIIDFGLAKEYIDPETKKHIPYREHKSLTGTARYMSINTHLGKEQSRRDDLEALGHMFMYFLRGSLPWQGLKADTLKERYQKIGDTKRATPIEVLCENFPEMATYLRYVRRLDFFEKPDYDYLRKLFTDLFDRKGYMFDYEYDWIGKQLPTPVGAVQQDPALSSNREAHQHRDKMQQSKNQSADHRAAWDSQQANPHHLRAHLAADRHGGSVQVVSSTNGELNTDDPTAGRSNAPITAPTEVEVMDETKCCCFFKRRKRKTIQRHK
RPS6KA3, sequence (P51812 whole entry): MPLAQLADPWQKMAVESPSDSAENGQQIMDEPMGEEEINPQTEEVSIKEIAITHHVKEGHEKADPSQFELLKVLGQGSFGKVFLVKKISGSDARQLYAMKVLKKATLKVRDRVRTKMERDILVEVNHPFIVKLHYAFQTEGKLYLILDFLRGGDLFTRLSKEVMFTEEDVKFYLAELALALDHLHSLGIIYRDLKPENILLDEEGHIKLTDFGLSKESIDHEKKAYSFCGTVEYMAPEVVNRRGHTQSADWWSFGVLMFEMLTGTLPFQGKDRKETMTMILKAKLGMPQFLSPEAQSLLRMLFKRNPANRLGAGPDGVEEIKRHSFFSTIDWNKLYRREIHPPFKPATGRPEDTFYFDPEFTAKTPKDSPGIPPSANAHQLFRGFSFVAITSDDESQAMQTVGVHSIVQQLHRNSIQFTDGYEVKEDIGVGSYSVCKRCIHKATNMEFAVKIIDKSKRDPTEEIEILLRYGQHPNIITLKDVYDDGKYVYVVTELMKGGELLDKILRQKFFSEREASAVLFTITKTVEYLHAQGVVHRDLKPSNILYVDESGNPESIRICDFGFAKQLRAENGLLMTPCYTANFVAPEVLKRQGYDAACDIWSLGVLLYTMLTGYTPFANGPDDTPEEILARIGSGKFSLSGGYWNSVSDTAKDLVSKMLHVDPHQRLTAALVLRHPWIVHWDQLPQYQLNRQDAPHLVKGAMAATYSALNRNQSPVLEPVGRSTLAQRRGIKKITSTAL
MAPK11, sequence (Q15759 whole entry): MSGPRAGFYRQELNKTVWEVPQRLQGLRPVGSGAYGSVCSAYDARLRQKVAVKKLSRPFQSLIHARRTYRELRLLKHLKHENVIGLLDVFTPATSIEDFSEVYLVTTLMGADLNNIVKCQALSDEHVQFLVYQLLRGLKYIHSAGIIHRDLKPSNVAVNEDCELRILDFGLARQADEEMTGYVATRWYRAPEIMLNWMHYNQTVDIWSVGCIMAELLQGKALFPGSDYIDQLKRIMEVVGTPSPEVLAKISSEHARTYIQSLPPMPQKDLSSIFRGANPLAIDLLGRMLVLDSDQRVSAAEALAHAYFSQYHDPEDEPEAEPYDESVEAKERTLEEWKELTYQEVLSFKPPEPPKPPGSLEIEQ
ACVR2B, sequence (Q13705 whole entry): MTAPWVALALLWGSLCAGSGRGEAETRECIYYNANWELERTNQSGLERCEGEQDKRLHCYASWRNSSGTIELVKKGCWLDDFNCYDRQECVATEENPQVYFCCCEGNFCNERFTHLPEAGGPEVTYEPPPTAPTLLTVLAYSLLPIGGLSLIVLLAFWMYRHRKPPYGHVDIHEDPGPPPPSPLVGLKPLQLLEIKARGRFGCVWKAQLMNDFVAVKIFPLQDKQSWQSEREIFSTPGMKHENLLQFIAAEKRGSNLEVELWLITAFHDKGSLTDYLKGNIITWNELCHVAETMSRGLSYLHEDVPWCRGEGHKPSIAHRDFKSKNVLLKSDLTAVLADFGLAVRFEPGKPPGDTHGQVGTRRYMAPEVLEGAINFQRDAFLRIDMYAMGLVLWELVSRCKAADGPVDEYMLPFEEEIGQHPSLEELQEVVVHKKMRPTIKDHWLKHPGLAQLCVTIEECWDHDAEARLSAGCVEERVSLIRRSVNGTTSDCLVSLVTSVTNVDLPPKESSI
GSK3B, sequence (P49841 whole entry): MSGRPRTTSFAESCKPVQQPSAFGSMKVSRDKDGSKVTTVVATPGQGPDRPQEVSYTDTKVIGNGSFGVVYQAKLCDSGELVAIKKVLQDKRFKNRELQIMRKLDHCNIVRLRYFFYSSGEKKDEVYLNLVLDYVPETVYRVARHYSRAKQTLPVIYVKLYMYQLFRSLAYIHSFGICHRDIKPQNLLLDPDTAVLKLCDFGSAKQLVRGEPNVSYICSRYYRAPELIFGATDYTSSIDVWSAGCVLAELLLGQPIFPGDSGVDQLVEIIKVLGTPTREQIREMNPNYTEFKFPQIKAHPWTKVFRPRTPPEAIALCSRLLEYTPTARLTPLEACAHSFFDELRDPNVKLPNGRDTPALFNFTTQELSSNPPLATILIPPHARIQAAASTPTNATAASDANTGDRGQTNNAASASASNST
PRKAA2, sequence (P54646 whole entry): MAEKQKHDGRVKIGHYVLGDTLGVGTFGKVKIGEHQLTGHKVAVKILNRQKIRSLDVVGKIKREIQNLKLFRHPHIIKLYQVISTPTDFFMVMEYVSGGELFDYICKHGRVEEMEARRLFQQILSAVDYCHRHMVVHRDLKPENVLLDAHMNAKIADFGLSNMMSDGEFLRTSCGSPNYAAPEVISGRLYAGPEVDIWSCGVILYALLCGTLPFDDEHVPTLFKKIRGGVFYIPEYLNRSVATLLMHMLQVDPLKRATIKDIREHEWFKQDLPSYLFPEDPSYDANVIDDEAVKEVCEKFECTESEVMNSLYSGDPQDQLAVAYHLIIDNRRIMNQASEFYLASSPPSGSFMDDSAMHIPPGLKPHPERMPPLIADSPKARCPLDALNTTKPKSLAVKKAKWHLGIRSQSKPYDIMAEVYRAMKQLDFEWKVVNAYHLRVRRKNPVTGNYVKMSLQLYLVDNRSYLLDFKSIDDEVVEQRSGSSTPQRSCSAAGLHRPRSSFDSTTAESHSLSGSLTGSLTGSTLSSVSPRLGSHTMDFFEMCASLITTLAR

ΔTm inhibitor 1 (CDK6): 0.1 °C
ΔTm inhibitor 1 (RIOK2): 0.3 °C
ΔTm inhibitor 1 (STK38): 1.1 °C
ΔTm inhibitor 1 (PRKAA2): 1.1 °C
ΔTm inhibitor 1 (MAPK11): 0.3 °C
ΔTm inhibitor 1 (ACVR2B): 7.4 °C
ΔTm inhibitor 1 (TGFBR1): 9.5 °C
ΔTm inhibitor 1 (MAPK3): 0.5 °C
ΔTm inhibitor 1 (PKN2): 3.7 °C
ΔTm inhibitor 1 (DAPK3): 2.8 °C
ΔTm inhibitor 1 (MAP2K6): 1.1 °C
ΔTm inhibitor 1 (CSNK1G3): 0.3 °C
ΔTm inhibitor 1 (DCLK1): 0.6 °C
ΔTm inhibitor 1 (VRK1): 0.7 °C
ΔTm inhibitor 1 (STK4): 2.6 °C
ΔTm inhibitor 1 (AKT3): 0.4 °C
ΔTm inhibitor 1 (MERTK): 1.3 °C
ΔTm inhibitor 1 (STK25): 0.5 °C
ΔTm inhibitor 1 (RPS6KA3): 3.4 °C
ΔTm inhibitor 1 (STK17A): 3.4 °C
ΔTm inhibitor 1 (GSK3B): 4.1 °C
ΔTm inhibitor 1 (JAK1): 6.4 °C
Compound: CC(=O)c1cccc(-c2cnc3ccc(NCC4CC4)nn23)c1 [compound 1, K00135]

ΔTm inhibitor 2 (CDK6): 0.4 °C
ΔTm inhibitor 2 (RIOK2): -0.2 °C
ΔTm inhibitor 2 (STK38): 0.4 °C
ΔTm inhibitor 2 (PRKAA2): -0.1 °C
ΔTm inhibitor 2 (MAP4K4): -0.1 °C
ΔTm inhibitor 2 (MAPK11): 0.0 °C
ΔTm inhibitor 2 (PRKG1): 1.6 °C
ΔTm inhibitor 2 (MAPK3): -0.1 °C
ΔTm inhibitor 2 (PKN2): -0.5 °C
ΔTm inhibitor 2 (DAPK3): 0.9 °C
ΔTm inhibitor 2 (MAPK13): 0.4 °C
ΔTm inhibitor 2 (MAP2K6): 0.0 °C
ΔTm inhibitor 2 (DCLK1): -0.4 °C
ΔTm inhibitor 2 (VRK1): 1.1 °C
ΔTm inhibitor 2 (CDKL2): -0.5 °C
ΔTm inhibitor 2 (STK4): 0.7 °C
ΔTm inhibitor 2 (MAPK8): 0.7 °C
ΔTm inhibitor 2 (AKT3): 0.0 °C
ΔTm inhibitor 2 (MERTK): 0.0 °C
ΔTm inhibitor 2 (STK25): 0.7 °C
ΔTm inhibitor 2 (RPS6KA3): 0.7 °C
ΔTm inhibitor 2 (GSK3B): 1.4 °C
ΔTm inhibitor 2 (CDKL5): 1.1 °C
ΔTm inhibitor 2 (CDK17): 0.0 °C
ΔTm inhibitor 2 (STK32A): -0.2 °C
ΔTm inhibitor 2 (JAK1): 0.1 °C
ΔTm inhibitor 2 (TRIB1): 0.2 °C
Compound: CCN1/C(=C/C(C)=O)Sc2ccc(OC)cc21 [compound 2, TG003]

ΔTm inhibitor 4 (MAP4K4): 0.2 °C
ΔTm inhibitor 4 (ACVR2B): 0.0 °C
ΔTm inhibitor 4 (PRKG1): 0.5 °C
ΔTm inhibitor 4 (TGFBR1): 0.9 °C
ΔTm inhibitor 4 (MAPK13): 0.5 °C
ΔTm inhibitor 4 (CSNK1G3): 1.2 °C
ΔTm inhibitor 4 (CDKL2): 0.1 °C
ΔTm inhibitor 4 (MAPK8): 1.0 °C
ΔTm inhibitor 4 (STK17A): 2.2 °C
ΔTm inhibitor 4 (CDKL5): 0.3 °C
ΔTm inhibitor 4 (CDK17): 0.4 °C
ΔTm inhibitor 4 (STK32A): 0.2 °C
ΔTm inhibitor 4 (TRIB1): 0.1 °C
Compound: Nc1nccc(-c2ccc3noc(-c4ccc(Cl)cc4)c3c2)n1 [compound 4, K00972]
